Assay results published in US12448358B2, “Inhibitors of protein arginine deiminase 1 and methods of preparation and use thereof” (University of Massachusetts, priority 2019, dated 2025).
pEC50: −log10 of the molar value.

How the values were obtained:
PAD1 [1] = target: T1, PAD1 (Homo sapiens, UniProt Q9ULC6); experiment: Histone H3 citrullination in HEK293TPAD1 cells; type: cell-based; conditions: 1 mM CaCl2, 5 μM ionomycin, 3 h, read-out: EC50 of inhibition of histone H3 citrullination
T1 construct: made in house
T1 sequence (Q9ULC6 1-663): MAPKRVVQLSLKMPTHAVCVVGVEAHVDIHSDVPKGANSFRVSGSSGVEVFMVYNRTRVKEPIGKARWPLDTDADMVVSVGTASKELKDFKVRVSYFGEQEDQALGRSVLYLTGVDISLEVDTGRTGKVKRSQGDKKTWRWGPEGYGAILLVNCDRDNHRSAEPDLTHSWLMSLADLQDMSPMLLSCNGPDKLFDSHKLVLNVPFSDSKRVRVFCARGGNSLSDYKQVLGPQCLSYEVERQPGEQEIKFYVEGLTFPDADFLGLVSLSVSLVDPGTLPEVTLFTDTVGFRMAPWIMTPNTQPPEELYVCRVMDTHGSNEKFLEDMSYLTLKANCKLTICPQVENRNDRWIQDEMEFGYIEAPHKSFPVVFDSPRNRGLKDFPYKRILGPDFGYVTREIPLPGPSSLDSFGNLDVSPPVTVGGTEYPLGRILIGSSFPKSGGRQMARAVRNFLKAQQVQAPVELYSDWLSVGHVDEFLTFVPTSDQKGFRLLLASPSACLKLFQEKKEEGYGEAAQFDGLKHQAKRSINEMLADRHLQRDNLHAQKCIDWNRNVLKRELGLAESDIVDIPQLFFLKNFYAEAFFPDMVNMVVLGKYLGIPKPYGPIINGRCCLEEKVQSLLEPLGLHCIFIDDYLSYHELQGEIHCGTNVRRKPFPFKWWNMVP
Experimental: The final concentration of DMSO in each well was 1%. […] All the experiments were performed at least in duplicate.

HEK293TPAD1 cells = experiment: Cytotoxicity studies (XTT) in HEK293TPAD1 cells; type: cell-based, human; conditions: cytotoxicity EC50 (XTT, 24 h) over EC50 for histone H3 citrullination
Experimental: Cytotoxicity Studies. HEK293TPAD1 cells were seeded (2×10^4 cells/well) on 96-well plate and were allowed to grow in DMEM (supplemented with 10% heat-inactivated fetal bovine serum, 100 units/mL penicillin, 100 μg/mL streptomycin and 0.15 mg/mL hygromycin B) for 24 h. Cells were then treated with DMSO or various concentrations of inhibitor at 37° C. for 24 h. Activated XTT reagent (ATCC) was added to each well and cells were further incubated at 37° C. for 5 h. Cell viability was measured by recording the absorbance at 475 nm and 660 nm. Equation 3, Y=Bottom+(Top−Bottom)/[1+10^((logEC50-X)*Hillslope)] (3), was used to fit an eight-point dose-response curve to determine the EC50 values for inhibition of cell-proliferation using GraphPad Prism 7.03. Top and Bottom are plateaus of the dose-response curve, X is the log of inhibitor-concentration, Hillslope is the slope factor or Hill slope. All the experiments were performed at least in triplicate.

pronuclear mouse zygotes = experiment: Early embryo development of pronuclear mouse zygotes; type: cell-based; conditions: 100 μM inhibitor, 100 h of culture, 87% of control zygotes reached blastocyst stage
Experimental: (§1) In Vitro Fertilization. Female ICR mice (4-6 weeks) were injected intraperitoneally with 10 international units (IU) of pregnant mare serum gonadotropin (PMSG) and after 46 h, 10 IU of human chorionicgonadotropin (hCG). After 16 h, cumulus masses were released from oviducts into HEPES-buffered HTF culture medium (HTF) (InVitro Care, Frederick, MD). Cauda epididymal mouse spermatozoa were released and placed in drops of HTF culture medium (InVitro Care). Then the sperm suspensions were added to the cumulus mass drops with a final concentration of approximately 1-3×10^5/mL. Zygotes were collected and transferred to KSOM medium containing 100 μM PAD1 inhibitor or equal volume of DMSO as a control. Then 4-cell and blastocyst stage embryos were collected after 48 and 100 h of culture, respectively.

PAD1 [2] = target: T2, PAD1 (Mus musculus, UniProt Q9Z185); experiment: Histone H3 citrullination in mouse embryos (immunofluorescence, confocal microscopy); type: cell-based; conditions: mouse embryos at the 4-cell stage, 100 μM inhibitor
T2 construct: endogenously expressed cellular PAD1 in mouse zygotes; endogenous in cells; host or cells: ICR mouse zygotes / 4-cell embryos from in vitro fertilization
T2 sequence (Q9Z185 1-662): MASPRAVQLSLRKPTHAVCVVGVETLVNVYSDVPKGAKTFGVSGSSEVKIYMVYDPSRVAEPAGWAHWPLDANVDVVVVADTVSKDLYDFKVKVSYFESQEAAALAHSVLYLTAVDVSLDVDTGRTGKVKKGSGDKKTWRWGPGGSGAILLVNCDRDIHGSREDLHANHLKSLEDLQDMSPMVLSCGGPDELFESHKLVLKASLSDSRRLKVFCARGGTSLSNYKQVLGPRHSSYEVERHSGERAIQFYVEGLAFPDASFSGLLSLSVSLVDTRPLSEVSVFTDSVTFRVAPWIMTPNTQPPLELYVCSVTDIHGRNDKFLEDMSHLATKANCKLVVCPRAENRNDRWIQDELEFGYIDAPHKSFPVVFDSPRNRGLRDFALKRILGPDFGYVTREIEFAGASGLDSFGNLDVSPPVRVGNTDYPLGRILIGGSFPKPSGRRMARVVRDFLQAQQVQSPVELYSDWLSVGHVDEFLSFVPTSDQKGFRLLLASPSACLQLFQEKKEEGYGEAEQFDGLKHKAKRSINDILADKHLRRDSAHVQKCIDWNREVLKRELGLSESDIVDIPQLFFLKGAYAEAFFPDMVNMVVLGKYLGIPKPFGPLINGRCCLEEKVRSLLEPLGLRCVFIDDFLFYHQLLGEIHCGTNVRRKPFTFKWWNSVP
Experimental: as §1
Immunofluorescent and Confocal Microscopy. Embryos were fixed in 4% paraformaldehyde in PBS (pH 7.4) for 30 min and then permeabilized in 0.5% Triton X-100 for 30 min at room temperature. After blocking in 1% BSA/PBS at room temperature for 1 h, samples were incubated with anti-H3Cit2/8/17 antibody (Catalogue no. ab77164, Abcam) (1:100) at 4° C. for 12 h. After five washes, samples were incubated with FITC-conjugated secondary antibody for 1 h at room temperature. Nuclei were counterstained with DAPI for 5 min. […]

pEC50 (PAD1 [1])	SMILES	Efficacy Index (the ratio of cytotoxicity to EC50) (HEK293TPAD1 cells)	Effect on early embryo development (pronuclear mouse zygotes)	Inhibition of histone H3 citrullination in embryos (PAD1 [2])
4.84	N=C(CF)NCCC[C@H](NC(=O)c1cc(I)cc(I)c1O)c1nc2ccccc2[nH]1 [Compound 1]	17	dramatic arrest of embryo development at the morula stage	dramatically inhibit histone H3 citrullination
4.50	N=C(CF)NCCC[C@H](NC(=O)c1cc(I)c(F)c(I)c1O)c1nc2ccccc2[nH]1 [Compound 19]	10	dramatic arrest of embryo development at the morula stage	dramatically inhibit histone H3 citrullination
